Read-outs that look alike come from different tables or passages of the source.
What was measured:
breast cancer cells = details: cited from earlier work
[1] = on administration; background statement; cited from earlier work
[2] = clinical trials, cited from earlier work
[3] = system: DLD-1 cells (human colorectal cancer cells); assay: MTS cell viability drug combination assay, combination index, DLD-1; assay type: cell-based; details: CI<1 synergism
Experimental: (§1) Human colon adenocarcinoma cell line, DLD-1, and human breast adenocarcinoma cell line, SKBr-3, were obtained from American Type Culture Collection (manassas, Va.). DLD-1 cells were maintained in RPMI 1640 medium supplemented with 10% fetal bovine serum, and SKBr-3 cells were cultured in McCoy's 5a medium supplemented with 10% fetal bovine serum. 17-DMAG and 17-AAG were obtained using published procedures. Other cytotoxic agents were purchased commercially from suppliers such as Sigma Chemical Co. (St. Louis, Mo.) and Sequoia Research Products (Oxford, UK).
(§2) Cells were seeded in duplicate in 96-well microtiter plates at a density of 5,000 cells per well and allowed to attach overnight. Cells were treated with 17-AAG or 17-DMAG and the corresponding antimitotic at varying concentrations, ranging from 0.5 picomolar (“pM”) to 50 micromolar (“μM”), for 3 days. Cell viability was determined using the MTS assay (Promega). For the drug combination assay, cells were seeded in duplicate in 96-well plates (5,000 cells/well). […] Based on the IC50 values of each individual drug, combined drug treatment was designed at constant ratios of two drugs, i.e., equivalent to the ratio of their IC50. Two treatment schedules were used: In one schedule, the cells were exposed to 24 hours of 17-AAG or 17-DMAG. The drug was then added to the cells and incubated for 48 hours. In another schedule, cells were exposed to the drug alone for 24 hours followed by addition of 17-AAG or 17-DMAG for 48 hours. Cell viability was determined by the MTS assay.
(§3) Synergism, additivity or antagonism was determined by median effect analysis using the combination index (CI) calculated using Calcusyn (Biosoft, Cambridge, UK). The combination index is defined as follows: CI=[D]1/[Dx]1+[D]2/[Dx]2
(§4) The quantities [D]1 and [D]2 represent the concentrations of the first and second drug, respectively, that in combination provide a response of x % in the assay. The quantities [Dx]1 and [Dx]2 represent the concentrations of the first and second drug, respectively, that when used alone provide a response of x % in the assay. Values of CI<1, CI=1, and CI>1 indicated drug-drug synergism, additivity, and antagonism respectively (Chou and Talalay 1984). The “enhancing” effect of two drugs can also be determined.
“Pre-administration” refers to the administration of 17-AAG to the cells before the administration of antimitotic; “post-administration” refers to the administration of 17-AAG to the cells after the administration of antimitotic.

[4] = system: ErbB2-expressing cancer cells; details: ErbB2-expressing cancer cells in vitro; Citri et al. 2002; cited from earlier work
[5] = system: SKBr-3 cells (human breast cancer cells); assay: MTS cell viability drug combination assay, combination index, SKBr-3; assay type: cell-based; details: CI<1 synergism
Experimental: as §1, §2, §3, §4

[6] = 17-AAG Post-Administration (antimitotic 24 h, then 17-AAG 48 h)
[7] = 17-AAG Pre-Administration (17-AAG 24 h, then antimitotic 48 h)

Row | SMILES | CI value (combination index) of antimitotic with 17-AAG [3, 6] | CI value (combination index) of antimitotic with 17-AAG [3, 7] | CI value (combination index) of antimitotic with 17-AAG [5, 6] | CI value (combination index) of antimitotic with 17-AAG [5, 7] | also measured
1 | C=CCNC1=C2C[C@@H](C)C[C@H](OC)[C@H](O)[C@@H](C)/C=C(\C)[C@H](OC(N)=O)[C@@H](OC)/C=C\C=C(/C)C(=O)NC(=CC1=O)C2=O [17-AAG, 17-allylamino-17-desmethoxygeldanamycin] |  |  |  |  | sensitization of cells to cytotoxic effects of other drugs (breast cancer cells; cells in culture, Münster et al. 2001): sensitizes cells in culture to the cytotoxic effects of Paclitaxel and doxorubicin; hepatotoxicity [1]: reduced hepatotoxicity; MTD (maximum tolerated dose) ([2]; daily×5 schedule): about 40 mg/m^2; MTD (maximum tolerated dose) ([2]; once-weekly regimen): about 308 mg/m^2; MTD (maximum tolerated dose) ([2]; twice-weekly regimen): about 220 mg/m^2
2 | CC[C@]1(O)C[C@@H]2CN(CCc3c([nH]c4ccccc34)[C@@](C(=O)OC)(c3cc4c(cc3OC)N(C)[C@H]3[C@@](O)(C(N)=O)[C@H](O)[C@]5(CC)C=CCN6CC[C@]43[C@@H]65)C2)C1 [Vindesine, vindesine] | 0.68 ± 0.08 | 0.91 ± 0.41 |  |  | 
3 | CC(=O)O[C@H]1C(=O)[C@@]2(C)[C@H]([C@H](OC(=O)c3ccccc3)[C@]3(O)C[C@H](OC(=O)[C@H](O)[C@@H](NC(=O)c4ccccc4)c4ccccc4)C(C)=C1C3(C)C)[C@]1(OC(C)=O)CO[C@@H]1C[C@@H]2O [paclitaxel] |  |  |  |  | apoptosis, combination with 17-AAG (breast cancer cells; coincident treatment with paclitaxel and 17-AAG, retinoblastoma protein-producing cells): synergistic apoptosis; apoptosis, combination with 17-AAG (breast cancer cells; paclitaxel followed by 17-AAG 4 hours later): synergistic effect similar to coincident treatment; apoptosis, combination with 17-AAG (breast cancer cells; pretreatment with 17-AAG followed by paclitaxel): abrogation of apoptosis
4 | C=CC(=O)Nc1cc2c(Nc3ccc(F)c(Cl)c3)ncnc2cc1OCCCN1CCOCC1 [CI-1033] |  |  |  |  | combination effect on growth, with anti-ErB2 antibody Herceptin [4]: antagonistic effect
5 | CC[C@]1(O)C[C@H]2CN(CCc3c([nH]c4ccccc34)[C@@](C(=O)OC)(c3cc4c(cc3OC)N(C=O)[C@H]3[C@@](O)(C(=O)OC)[C@H](OC(C)=O)[C@]5(CC)C=CCN6CC[C@]43[C@@H]65)C2)C1 [Vincristine, vincristine] | 0.42 ± 0.08 | 0.96 ± 0.3 | 0.99 ± 0.73 | 0.67 ± 0.37 | 
6 | C/C1=C/C[C@@H](/C(C)=C/c2csc(C)n2)OC(=O)C[C@H](O)C(C)(C)C(=O)[C@H](C)[C@@H](O)[C@@H](C)CCC1 [Epothilone D, epothilone D] | 0.61 ± 0.12 | 0.84 ± 0.06 | 0.58 ± 0.009 | 0.72 ± 0.07 | 
7 | CC[C@]1(O)C[C@@H]2CN(CCc3c([nH]c4ccccc34)[C@@](C(=O)OC)(c3cc4c(cc3OC)N(C)[C@H]3[C@@](O)(C(=O)OC)[C@H](OC(C)=O)[C@]5(CC)C=CCN6CC[C@]43[C@@H]65)C2)C1 [Vinblastine, vinblastine] | 0.38 ± 0.11 | 0.92 ± 0.3 | 0.68 ± 0.41 | 0.39 ± 0.03 | 
8 | CC(=O)O[C@@]12CO[C@@H]1C[C@H](O)[C@@]1(C)C(=O)[C@H](O)C3=C(C)[C@@H](OC(=O)[C@H](O)[C@@H](NC(=O)OC(C)(C)C)c4ccccc4)C[C@@](O)([C@@H](OC(=O)c4ccccc4)[C@H]21)C3(C)C [Docetaxel, docetaxel] | 0.29 ± 0.12 | 0.79 ± 0.15 | 0.59 ± 0.26 | 0.53 ± 0.11 | 
9 | COC1=C2C[C@@H](C)C[C@H](OC)[C@H](O)[C@@H](C)/C=C(\C)[C@H](OC(N)=O)[C@@H](OC)/C=C\C=C(/C)C(=O)NC(=CC1=O)C2=O [geldanamycin, Geldanamycin] |  |  |  |  | combination effect on growth, co-administration with CI-1033 [4]: additive effect; hepatotoxicity [1]: unacceptable hepatotoxicity
